Experiment [1] deals with T1, Tyrosine-protein kinase receptor UFO (Homo sapiens, UniProt P30530).
T1 sequence (P30530 whole entry): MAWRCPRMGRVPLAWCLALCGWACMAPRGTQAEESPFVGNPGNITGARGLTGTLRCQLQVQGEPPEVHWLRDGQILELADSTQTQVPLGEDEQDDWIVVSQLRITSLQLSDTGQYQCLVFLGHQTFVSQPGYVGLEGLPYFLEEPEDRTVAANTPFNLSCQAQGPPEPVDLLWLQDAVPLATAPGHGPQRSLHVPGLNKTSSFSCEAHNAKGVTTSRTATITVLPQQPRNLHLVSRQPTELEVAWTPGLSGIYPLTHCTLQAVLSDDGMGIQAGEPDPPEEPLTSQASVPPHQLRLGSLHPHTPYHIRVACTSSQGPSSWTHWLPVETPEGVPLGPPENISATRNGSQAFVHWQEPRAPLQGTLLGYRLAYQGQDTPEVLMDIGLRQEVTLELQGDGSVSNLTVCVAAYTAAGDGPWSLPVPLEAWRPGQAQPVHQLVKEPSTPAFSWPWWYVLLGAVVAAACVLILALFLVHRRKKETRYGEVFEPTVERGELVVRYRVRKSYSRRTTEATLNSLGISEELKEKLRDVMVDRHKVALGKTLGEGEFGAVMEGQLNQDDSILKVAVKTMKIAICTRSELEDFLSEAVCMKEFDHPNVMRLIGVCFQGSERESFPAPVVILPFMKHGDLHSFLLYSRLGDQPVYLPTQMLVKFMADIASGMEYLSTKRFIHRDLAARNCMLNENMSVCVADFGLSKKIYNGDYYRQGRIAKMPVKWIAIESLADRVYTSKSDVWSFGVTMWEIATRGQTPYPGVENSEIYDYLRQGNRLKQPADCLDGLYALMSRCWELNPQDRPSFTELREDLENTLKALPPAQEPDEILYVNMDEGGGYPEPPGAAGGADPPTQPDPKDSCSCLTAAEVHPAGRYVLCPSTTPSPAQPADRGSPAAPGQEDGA

In experiment [2] the target is T2, Tyrosine-protein kinase Mer (Homo sapiens, UniProt Q12866).
T2 sequence (Q12866 whole entry): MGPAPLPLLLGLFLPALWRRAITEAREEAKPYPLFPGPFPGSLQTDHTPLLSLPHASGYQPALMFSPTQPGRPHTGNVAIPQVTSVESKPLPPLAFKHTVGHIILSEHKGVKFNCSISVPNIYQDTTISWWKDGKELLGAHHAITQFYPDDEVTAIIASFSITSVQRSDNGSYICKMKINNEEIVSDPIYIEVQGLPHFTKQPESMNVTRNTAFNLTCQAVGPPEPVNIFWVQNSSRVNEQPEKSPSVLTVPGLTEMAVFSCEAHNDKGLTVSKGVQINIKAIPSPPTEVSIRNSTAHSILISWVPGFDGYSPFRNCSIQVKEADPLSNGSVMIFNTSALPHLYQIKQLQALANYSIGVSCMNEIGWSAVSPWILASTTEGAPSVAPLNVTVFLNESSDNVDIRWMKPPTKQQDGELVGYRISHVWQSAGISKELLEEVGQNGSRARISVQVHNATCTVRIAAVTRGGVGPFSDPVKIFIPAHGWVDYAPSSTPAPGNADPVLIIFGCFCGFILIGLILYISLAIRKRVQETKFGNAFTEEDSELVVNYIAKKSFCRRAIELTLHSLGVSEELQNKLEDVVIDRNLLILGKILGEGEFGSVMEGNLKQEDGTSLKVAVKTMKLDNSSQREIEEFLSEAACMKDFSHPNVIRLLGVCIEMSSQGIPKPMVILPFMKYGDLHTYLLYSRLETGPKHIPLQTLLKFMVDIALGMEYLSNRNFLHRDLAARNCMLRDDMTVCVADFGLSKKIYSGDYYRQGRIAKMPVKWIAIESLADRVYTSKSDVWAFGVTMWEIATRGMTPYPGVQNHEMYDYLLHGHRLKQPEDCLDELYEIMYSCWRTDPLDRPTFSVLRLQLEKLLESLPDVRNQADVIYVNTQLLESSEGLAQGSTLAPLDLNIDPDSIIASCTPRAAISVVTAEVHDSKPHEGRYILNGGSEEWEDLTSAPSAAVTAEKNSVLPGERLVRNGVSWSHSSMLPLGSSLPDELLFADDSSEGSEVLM

A word on the IC50: it is the concentration that inhibits the measured activity by half. Low readings indicate greater potency in that assay, high ones weaker potency in that assay.

Bounds are passed on as bounds.

Regarding `COCCOc1nc(Nc2ccc(CN3CCN(C)CC3)cc2)nc2[nH]cc(-c3ccc4c(n3)CN(C)S4(=O)=O)c12`, the figures for the IC50 in experiment [1] and in experiment [2] were < 30 nM and > 1000 nM, respectively.
Take `COc1nc(Nc2ccc(CN3CCC(C)CC3)cc2)nc2[nH]cc(-c3ccc(F)cc3F)c12`: the IC50 in experiment [1] was < 30 nM.
